Experimental data as given in patent publication US7067503B2, “17-aryl linker derivatised estrogen 3-sulphamates as inhibitors of steroid sulphatase” (priority 2000, dated 2006).
Read-outs that look alike come from different tables or passages of the source.

Legend:
steroid sulphatase = biological target: T1, steroid sulphatase (Homo sapiens, UniProt P08842); assay: Inhibition of steroid sulphatase activity in placental microsomes (Protocol 2); assay type: biochemical; conditions: for inhibition at 0.01 µM / inhibition at 0.1 µM / inhibition at 10 µM: read-out: Placental Microsomes, % inhibition
T1 construct: Sulphatase-positive human placenta from normal term pregnancies are thoroughly minced with scissors; from tissue; host or cells: human term placenta (2000 g supernatant / microsomes)
Protocol: Inhibition of Steroid Sulphatase Activity in Placental Microsomes
Sulphatase-positive human placenta from normal term pregnancies are thoroughly minced with scissors and washed once with cold phosphate buffer (pH 7.4, 50 mM) then re-suspended in cold phosphate buffer (5 ml/g tissue). Homogenisation is accomplished with an Ultra-Turrax homogeniser, using three 10 second bursts separated by 2 minute cooling periods in ice. Nuclei and cell debris are removed by centrifuging (4° C.) at 2000 g for 30 minutes and portions (2 ml) of the supernatant are stored at 20° C.
Incubations (1 ml) are carried out using a protein concentration of 100 mg/ml, substrate concentration of 20 mM [6,7–3H]oestrone-3-sulphate (specific activity 60 Ci/mmol from New England Nuclear, Boston, Mass., U.S.A.) and an incubation time of 20 minutes at 37° C. If necessary eight concentrations of compounds are employed: 0 (i.e. control); 0.05 mM; 0.1 mM; 0.2 mM; 0.4 mM; 0.6 mM; 0.8 mM; 1.0 mM. After incubation each sample is cooled and the medium (1 ml) was pipetted into separate tubes containing [14C]oestrone (7×10^3 dpm) (specific activity 97 Ci/mmol from Amersham International Radiochemical Centre, Amersham, U.K.). The mixture is shaken thoroughly for 30 seconds with toluene (5 ml). […] A portion (2 ml) of the organic phase was removed, evaporated and the 3H and 14C content of the residue determined by scintillation spectrometry. The mass of oestrone-3-sulphate hydrolysed is calculated from the 3H counts obtained (corrected for the volumes of the medium and organic phase used, and for recovery of [14C]oestrone added) and the specific activity of the substrate.

[1] = in vivo; cited from earlier work
STS = biological target: T2, STS (Homo sapiens, UniProt P08842); assay: Plate assay, % inhibition
T2 sequence (P08842 22-583): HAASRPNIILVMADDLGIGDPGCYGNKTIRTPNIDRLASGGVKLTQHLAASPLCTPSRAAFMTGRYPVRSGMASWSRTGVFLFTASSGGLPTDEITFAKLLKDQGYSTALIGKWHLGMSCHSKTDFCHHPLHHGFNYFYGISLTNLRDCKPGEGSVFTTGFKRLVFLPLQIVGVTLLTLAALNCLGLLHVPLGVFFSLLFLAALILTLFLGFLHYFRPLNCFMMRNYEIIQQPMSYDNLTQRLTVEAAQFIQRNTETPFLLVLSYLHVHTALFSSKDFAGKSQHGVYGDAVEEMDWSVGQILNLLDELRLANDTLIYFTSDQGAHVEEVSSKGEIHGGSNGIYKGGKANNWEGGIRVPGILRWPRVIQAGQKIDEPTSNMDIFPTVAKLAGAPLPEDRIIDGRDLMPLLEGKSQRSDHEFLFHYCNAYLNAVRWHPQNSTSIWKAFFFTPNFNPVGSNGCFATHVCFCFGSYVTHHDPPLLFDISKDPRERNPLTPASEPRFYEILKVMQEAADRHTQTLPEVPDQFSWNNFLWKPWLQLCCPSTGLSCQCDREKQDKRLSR

E1-STS enzyme = biological target: T3, E1-STS enzyme (Homo sapiens, UniProt P08842); conditions: cited from earlier work
T3 sequence (P08842 22-583): T2 sequence (P08842 22-583)

T47D cells = assay: IC50 in T47D cells (table footnote); assay type: cell-based; conditions: Homo sapiens
Protocol: The STS inhibition provided by the compounds was determined in accordance with a plate assay and the Protocols set out herein.

T47D cell = T47D cell growth, % inhibition; assay type: cell-based; conditions: Homo sapiens
tubulin = conditions: at high concentrations; cited from earlier work
[2] = tested on: Meth A sarcoma, B16 melanoma or MDA-MB-435 estrogen receptor negative (ER−) breast cancer cells; conditions: subcutaneous injection of tumour cells; cited from earlier work
[3] = rats; cited from earlier work
[4] = rats, higher than that of estradiol; cited from earlier work
[5] = 10 nM, superscript 1 or 2 = run with the reference values of that footnote, -ve % means stimulation
[6] = 1 μM, superscript 1 or 2 = run with the reference values of that footnote, -ve % means stimulation
[7] = read-out: Plate assay % inhibition
[8] = 0.1 μM, -ve % means stimulation
[9] = 0.1 μM, read-out: Plate Assay, % inhibition
[10] = 1 μM, read-out: Plate Assay, % inhibition
[11] = 10 μM, read-out: Plate Assay, % inhibition

C[C@]12CCC3c4ccc(O)cc4CCC3C1CC[C@@H]2OS(=O)(=O)N(Cc1ccccc1)Cc1ccccc1 (stereo partly drawn) [BLE99060]
Placental Microsomes % inhibition (steroid sulphatase; [5]): −3.2^2%
Placental Microsomes % inhibition (steroid sulphatase; [6]): 1.36^2%

C[C@]12CC[C@@H]3c4ccc(OS(=O)(=O)O)cc4CC[C@H]3[C@@H]1CCC2=O [Compound E1S, oestrone sulphate]
half-life in blood [1]: 10 to 12 h

COc1cc2c(cc1O)CCC1C2CC[C@@]2(C)C1CC[C@@]2(O)Cc1cccc(Br)c1 (stereo partly drawn)
melting point: 173 to 177 °C

NS(=O)(=O)Oc1ccc2oc3ccccc3c2c1 [Compound 9]
Plate assay % inhibition (STS; 0.1 μM): <1%
Plate assay % inhibition (STS; 1 μM): 1%
Plate assay % inhibition (STS; 10 μM): 16%
Placental Microsomes % inhibition (steroid sulphatase; 10 nM): <5%
Placental Microsomes % inhibition (steroid sulphatase; column head printed "μM"): 66.0%

COc1cc2c(cc1O)CCC1C2CC[C@@]2(C)C1CC[C@@]2(O)Cc1ccc(C(C)(C)C)cc1 (stereo partly drawn) [BLE01008, 3,17β-Dihydroxy-17α-(4-tert-butylbenzyl)-2-methoxyestra-1,3,5(10)-triene]
inhibition at 0.1 µM (STS; [7]): -12%
inhibition at 1 µM (STS; [7]): -15%
melting point: 223 to 225 °C

C[C@]12CCC3c4ccc(OS(N)(=O)=O)cc4CCC3C1CC[C@H]2OS(=O)(=O)N(Cc1ccccc1)Cc1ccccc1 (stereo partly drawn) [BLE99068]
Plate assay % inhibition (STS; [8]): −18%
Plate assay % inhibition (STS; 1 μM, -ve % means stimulation): −1%
Plate assay % inhibition (STS; 10 μM, -ve % means stimulation): 19%
Placental Microsomes % inhibition (steroid sulphatase; [5]): 4.9^1%
Placental Microsomes % inhibition (steroid sulphatase; [6]): 58.2^1%

COc1cc2c(cc1OS(N)(=O)=O)CC[C@@H]1[C@@H]2CC[C@@]2(C)[C@H]1CC[C@@]2(O)Cc1ccccc1 [BLE01018, 3-O-Sulfamate 17β-hydroxy-17α-benzyl-2-methoxyestra-1,3,5(10)-triene]
inhibition at 0.1 µM (STS; [7]): -19%
inhibition at 1 µM (STS; [7]): -12%
IC50 (steroid sulphatase): 430 nM

CC(=O)NS(=O)(=O)O[C@H]1CCC2C3CCc4cc(OS(N)(=O)=O)ccc4C3CC[C@@]21C (stereo partly drawn) [BLE99065]
Plate assay % inhibition (STS; [8]): 7%
Plate assay % inhibition (STS; 1 μM, -ve % means stimulation): 5%
Plate assay % inhibition (STS; 10 μM, -ve % means stimulation): 23%
Placental Microsomes % inhibition (steroid sulphatase; [5]): 9.8^1%
Placental Microsomes % inhibition (steroid sulphatase; [6]): 91.0^1%

C[C@]12CCC3c4ccc(O)cc4CCC3C1CC[C@@]2(O)Cc1ccccn1 (stereo partly drawn)
melting point: 250 to 255 °C

NS(=O)(=O)Oc1ccc(C(=O)c2ccccc2)cc1 [Compound 6]
Plate assay % inhibition (STS; 0.1 μM): <1%
Plate assay % inhibition (STS; 1 μM): 1%
Plate assay % inhibition (STS; 10 μM): 11%

COc1cc2c(cc1OS(N)(=O)=O)CCC1C2CCC2(C)C(OS(N)(=O)=O)CCC12 (stereo not drawn) [OSO2NH2, OMe, C-β-OSO2NH2, α-H]
inhibition at 0.1 µM (STS; [7]): 7%
inhibition at 1 µM (STS; [7]): 12%
inhibition at 10 µM (STS; [7]): 32%

CN(C)S(=O)(=O)OC1CCC2C3CCc4cc(OS(N)(=O)=O)ccc4C3CCC12C (stereo not drawn) [BLE99069]
Plate assay % inhibition (STS; [8]): 3%
Plate assay % inhibition (STS; 1 μM, -ve % means stimulation): 10%
Placental Microsomes % inhibition (steroid sulphatase; [5]): 30.3^1%
Placental Microsomes % inhibition (steroid sulphatase; [6]): 96.3^1%

oestrone-3-S-sulphamate
mode of E1-STS inhibition (E1-STS enzyme): weaker non-time-dependent inactivators

C[C@]12CC[C@@H]3c4ccc(OS(N)(=O)=O)cc4CC[C@H]3[C@@H]1CC[C@@H]2O [BLE00084]
Plate assay % inhibition (STS; [8]): 4%
Plate assay % inhibition (STS; 10 μM, -ve % means stimulation): 23%

COc1cc2c(cc1OS(N)(=O)=O)CC[C@@H]1[C@@H]2CC[C@@]2(C)[C@H]1CC[C@@]2(O)Cc1ccc(C(C)(C)C)cc1 [BLE01016, 3-O-Sulfamate 17β-hydroxy-17α-(4-tert-butylbenzyl)-2-methoxyestra-1,3,5(10) -triene]
inhibition at 0.1 µM (STS; [7]): -14%
inhibition at 1 µM (STS; [7]): -10%
inhibition at 10 µM (STS; [7]): -3%
IC50 (steroid sulphatase): 4300 nM

CC(=O)NS(=O)(=O)O[C@H]1CCC2C3CCc4cc(O)ccc4C3CC[C@@]21C (stereo partly drawn) [BLE99058]
Plate assay % inhibition (STS; [8]): 4%
Plate assay % inhibition (STS; 1 μM, -ve % means stimulation): 1%
Placental Microsomes % inhibition (steroid sulphatase; [5]): 0.9^1%
Placental Microsomes % inhibition (steroid sulphatase; [6]): 7.8^1%

CSc1cc2c(cc1OS(N)(=O)=O)CCC1C2CCC2(C)C(=O)CCC12 (stereo not drawn) [Compound 7]
IC50 (T47D cells): 2.5 nM
inhibition at 0.1 µM (STS; [9]): 3%
inhibition at 1 µM (STS; [10]): 53%
inhibition at 10 µM (STS; [11]): 55%
inhibition at 0.01 µM (steroid sulphatase; 10 nM): 5.4%

oestrone-3-N-sulphamate
mode of E1-STS inhibition (E1-STS enzyme): weaker non-time-dependent inactivators

CCCCCN(CCCCC)S(=O)(=O)O[C@H]1CCC2C3CCc4cc(O)ccc4C3CC[C@@]21C (stereo partly drawn) [BLE99073]
Placental Microsomes % inhibition (steroid sulphatase; [5]): 1.2^2%
Placental Microsomes % inhibition (steroid sulphatase; [6]): −11.8^2%

CC1=C2CCC3c4ccc(OS(N)(=O)=O)cc4CCC3C2CC1 (stereo not drawn) [BLE00086]
inhibition at 0.1 µM (STS; [7]): 8%
inhibition at 1 µM (STS; [7]): 3%
inhibition at 10 µM (STS; [7]): 14%
inhibition at 10 µM (T47D cell): 93.2%

CN(C)S(=O)(=O)O[C@H]1CCC2C3CCc4cc(O)ccc4C3CC[C@@]21C (stereo partly drawn) [BLE99067]
Plate assay % inhibition (STS; [8]): −5%
Plate assay % inhibition (STS; 1 μM, -ve % means stimulation): −1%
Plate assay % inhibition (STS; 10 μM, -ve % means stimulation): 50%
Placental Microsomes % inhibition (steroid sulphatase; [5]): −0.1^1%
Placental Microsomes % inhibition (steroid sulphatase; [6]): 8.7^1%

CSc1cc2c(cc1OS(N)(=O)=O)CCC1C2CCC2(C)C1CCC2(O)Cc1ccc(C(C)(C)C)cc1 (stereo not drawn) [Compound 3]
inhibition at 0.1 µM (STS; [9]): < 1%
inhibition at 1 µM (STS; [10]): < 1%
inhibition at 10 µM (STS; [11]): 48%
inhibition at 0.01 µM (steroid sulphatase; 10 nM): 17.6%
inhibition at 0.1 µM (steroid sulphatase; 100 nM): 56%
inhibition at 10 µM (steroid sulphatase; 10 μM): 86.4%
IC50 (steroid sulphatase; read-out: Placental Microsomes, IC50): 80 nM

CCCCCN(CCCCC)S(=O)(=O)O[C@H]1CCC2C3CCc4cc(OS(N)(=O)=O)ccc4C3CC[C@@]21C (stereo partly drawn) [BLE99074]
Placental Microsomes % inhibition (steroid sulphatase; [6]): 23.7^2%

COc1cc2c(cc1O)CCC1C2CC[C@@]2(C)C1CC[C@@]2(O)Cc1ccccc1 (stereo partly drawn) [BLE01014, 3,17β-Dihydroxy-17α-benzyl-2-methoxyestra-1,3,5(10)-triene]
inhibition at 0.1 µM (STS; [7]): -14%
inhibition at 1 µM (STS; [7]): -14%
melting point: 209 to 213 °C

CC12CCC3c4ccc(OS(N)(=O)=O)cc4CCC3C1CCC2OS(N)(=O)=O (stereo not drawn) [BLE99031B]
inhibition at 0.1 µM (STS; [7]): 7%
inhibition at 1 µM (STS; [7]): 12%
inhibition at 10 µM (STS; [7]): 32%
IC50 (steroid sulphatase): 20 nM

COc1cc2c(cc1O)CC[C@@H]1[C@@H]2CC[C@]2(C)[C@@H](O)CC[C@@H]12 [Compound 2-MeOE2, 2-methoxyoestradiol]
inhibition of colchicine binding to tubulin (tubulin): weak inhibitor of colchicine binding to tubulin
growth of tumours in vivo [2]: inhibits the growth of tumours

COc1cc2c(cc1OS(N)(=O)=O)CC[C@@H]1[C@@H]2CC[C@]2(C)C(=O)CC[C@@H]12 [Compound 2-MOEMATE, 2-methoxyoestrone-3-O-sulphamate, reference compound]
potency as a steroid sulphatase inhibitor relative to EMATE (E1-STS enzyme): equipotent with EMATE
Plate assay % inhibition (STS; [8]): 15%
Plate assay % inhibition (STS; 1 μM, -ve % means stimulation): 42%
Plate assay % inhibition (STS; 10 μM, -ve % means stimulation): 88%

NS(=O)(=O)Oc1ccc(C(=O)C=Cc2ccccc2)cc1 [Compound 8]
Plate assay % inhibition (STS; 0.1 μM): <1%
Plate assay % inhibition (STS; 1 μM): <4%
Plate assay % inhibition (STS; 10 μM): 14%

CC12CCC3c4ccc(OS(N)(=O)=O)cc4CCC3C1CCC2=O (stereo not drawn) [EMATE, oestrone-3-sulphamate, reference compound]
mode of E1-STS inhibition (E1-STS enzyme): time- and concentration-dependent manner
memory effect [3]: memory enhancing effect
IC50 (steroid sulphatase): 18 nM
Placental Microsomes % inhibition (steroid sulphatase; human): 97.8%
inhibition at 0.01 µM (steroid sulphatase): 27.3%
inhibition at 0.1 µM (steroid sulphatase): 85.1%
inhibition at 10 µM (steroid sulphatase): 99.5%
oral uterotrophic activity relative to estradiol [4]: 100 times

C[C@]12CCC3c4ccc(OS(N)(=O)=O)cc4CCC3C1CC[C@@H]2OS(=O)(=O)N(Cc1ccccc1)Cc1ccccc1 (stereo partly drawn) [BLE99063]
Plate assay % inhibition (STS; [8]): 0%
Plate assay % inhibition (STS; 1 μM, -ve % means stimulation): 15%
Placental Microsomes % inhibition (steroid sulphatase; [5]): −1.9^1%
Placental Microsomes % inhibition (steroid sulphatase; [6]): 38.2^1%

C[C@]12CCC3c4ccc(O)cc4CCC3C1CC[C@H]2OS(=O)(=O)N(Cc1ccccc1)Cc1ccccc1 (stereo partly drawn) [BLE99066]
Plate assay % inhibition (STS; [8]): 11%
Plate assay % inhibition (STS; 1 μM, -ve % means stimulation): 5%
Plate assay % inhibition (STS; 10 μM, -ve % means stimulation): 27%
Placental Microsomes % inhibition (steroid sulphatase; [5]): 1.4^1%
Placental Microsomes % inhibition (steroid sulphatase; [6]): 4.5^1%
